Results from PubChem BioAssay AID330 (DTP/NCI, 2004).
Several values for one entry are separate records, joined by “and”; a condition that tells them apart may be missing. Equal values may be shown once. Toxic doses and inconclusive results are not listed.

Test system: P388 leukemia ip, CD2F1 mice, survival T/C
Assay: NCI In Vivo Anticancer Drug Screen. Data for tumor model P388 Leukemia (intraperitoneal) in CD2F1 (CDF1) mice
Conditions: endpoint: median survival time, higher = longer survival
In short: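 Mice carrying the transplanted tumor received test compound or vehicle. Survival was recorded in each group, and the value is the treated-group measurement divided by that of the vehicle-treated control group.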

With CC[C@]1(O)C[C@H]2CN(CCc3c([nH]c4ccccc34)[C@@](C(=O)OC)(c3cc4c(cc3OC)N(C=O)[C@H]3[C@@](O)(C(=O)OC)[C@H](OC(C)=O)[C@]5(CC)C=CCN6CC[C@]43[C@@H]65)C2)C1 the T/C (dose: 0.06 mg/kg/injection, schedule: Q01DX010 (ip), vehicle: saline) was 168 % of control, the T/C (dose: 0.08 mg/kg/injection, schedule: Q01DX009 (ip), vehicle: saline) was 172 % of control and the T/C (dose: 0.08 mg/kg/injection, schedule: Q01DX009 (ip), vehicle: water) was 115 % of control. For the same molecule, the T/C (dose: 0.12 mg/kg/injection, schedule: Q01DX009 (ip), vehicle: water) was 166 % of control, the T/C (dose: 0.12 mg/kg/injection, schedule: Q04DX003 (ip), vehicle: saline) was 163 % of control and the T/C (dose: 0.13 mg/kg/injection, schedule: Q01DX005 (ip), vehicle: saline) was 161 % of control and 168 % of control. The T/C (dose: 0.13 mg/kg/injection, schedule: Q01DX010 (ip), vehicle: saline) was 181 % of control, the T/C (dose: 0.15 mg/kg/injection, schedule: Q01DX009 (ip), vehicle: saline) was 190 % of control and the T/C (dose: 0.18 mg/kg/injection, schedule: Q01DX005 (ip), vehicle: saline) was 110 % of control and 123 % of control. For the same molecule, the T/C (dose: 0.2 mg/kg/injection, schedule: Q01DX009 (ip), vehicle: saline) was 169 % of control, the T/C (dose: 0.2 mg/kg/injection, schedule: Q04DX003 (ip), vehicle: water) was 196 % of control and the T/C (dose: 0.22 mg/kg/injection, schedule: Q01DX009 (ip), vehicle: saline) was 114 % of control. For the same molecule, the T/C (dose: 0.22 mg/kg/injection, schedule: Q01DX009 (ip), vehicle: water) was 113 % of control, the T/C (dose: 0.25 mg/kg/injection, schedule: Q01DX001 (ip), vehicle: saline with Tween-80) was 115 % of control and the T/C (dose: 0.25 mg/kg/injection, schedule: Q01DX001 (iv), vehicle: saline) was 122 % of control. For the same molecule, the T/C (dose: 0.25 mg/kg/injection, schedule: Q01DX005 (ip), vehicle: saline) was 180 % of control and 184 % of control, the T/C (dose: 0.25 mg/kg/injection, schedule: Q01DX010 (ip), vehicle: saline) was 177 % of control and the T/C (dose: 0.25 mg/kg/injection, schedule: Q04DX003 (iv), vehicle: saline) was 120 % of control. For the same molecule, the T/C (dose: 0.3 mg/kg/injection, schedule: Q01DX005 (ip), vehicle: saline) was 112 % of control, the T/C (dose: 0.3 mg/kg/injection, schedule: Q04DX002 (ip), vehicle: saline) was 150 % of control and the T/C (dose: 0.33 mg/kg/injection, schedule: Q01DX009 (ip), vehicle: saline) was 113 % of control. For the same molecule, the T/C (dose: 0.36 mg/kg/injection, schedule: Q01DX009 (ip), vehicle: water) was 150 % of control, the T/C (dose: 0.36 mg/kg/injection, schedule: Q04DX003 (ip), vehicle: saline) was 167 % of control and 169 % of control and 174 % of control and the T/C (dose: 0.36 mg/kg/injection, schedule: Q04DX003 (iv), vehicle: saline) was 119 % of control and 123 % of control. For the same molecule, the T/C (dose: 0.37 mg/kg/injection, schedule: Q04DX002 (ip), vehicle: saline) was 117 % of control, the T/C (dose: 0.39 mg/kg/injection, schedule: Q04DX002 (ip), vehicle: saline) was 154 % of control and 164 % of control and the T/C (dose: 0.4 mg/kg/injection, schedule: Q01DX005 (ip), vehicle: saline) was 171 % of control. For the same molecule, the T/C (dose: 0.4 mg/kg/injection, schedule: Q04DX003 (ip), vehicle: saline) was 113 % of control, the T/C (dose: 0.43 mg/kg/injection, schedule: Q04DX002 (ip), vehicle: saline) was 153 % of control and 176 % of control and the T/C (dose: 0.44 mg/kg/injection, schedule: Q04DX002 (ip), vehicle: saline) was 162 % of control. For the same molecule, the T/C (dose: 0.5 mg/kg/injection, schedule: Q04DX003 (oral), vehicle: water) was 100 % of control, the T/C (dose: 0.5 mg/kg/injection, schedule: Q04DX004 (ip), vehicle: saline) was 169 % of control and the T/C (dose: 0.53 mg/kg/injection, schedule: Q04DX003 (ip), vehicle: saline) was 179 % of control and 182 % of control. The T/C (dose: 0.6 mg/kg/injection, schedule: Q01DX009 (ip), vehicle: saline) was 200 % of control, the T/C (dose: 0.6 mg/kg/injection, schedule: Q04DX003 (ip), vehicle: saline) was 198 % of control and the T/C (dose: 0.65 mg/kg/injection, schedule: Q04DX002 (ip), vehicle: saline) was 161 % of control and 168 % of control. For the same molecule, the T/C (dose: 0.67 mg/kg/injection, schedule: Q04DX002 (ip), vehicle: saline) was 174 % of control, the T/C (dose: 0.72 mg/kg/injection, schedule: Q04DX002 (ip), vehicle: saline) was 158 % of control and 192 % of control and the T/C (dose: 0.8 mg/kg/injection, schedule: Q01DX005 (ip), vehicle: saline) was 186 % of control. The T/C (dose: 0.8 mg/kg/injection, schedule: Q04DX003 (ip), vehicle: water) was 191 % of control, the T/C (dose: 0.8 mg/kg/injection, schedule: Q04DX003 (iv), vehicle: saline) was 161 % of control and 168 % of control and the T/C (dose: 1.0 mg/kg/injection, schedule: Q01DX003 (ip), vehicle: saline) was 163 % of control. The T/C (dose: 1.0 mg/kg/injection, schedule: Q04DX002 (ip), vehicle: saline) was 184 % of control, the T/C (dose: 1.0 mg/kg/injection, schedule: Q04DX003 (iv), vehicle: saline) was 182 % of control and the T/C (dose: 1.0 mg/kg/injection, schedule: Q04DX003 (oral), vehicle: water) was 106 % of control. For the same molecule, the T/C (dose: 1.08 mg/kg/injection, schedule: Q04DX002 (ip), vehicle: saline) was 167 % of control and 177 % of control, the T/C (dose: 1.2 mg/kg/injection, schedule: Q04DX002 (ip), vehicle: saline) was 169 % of control and 179 % of control and the T/C (dose: 1.2 mg/kg/injection, schedule: Q04DX003 (iv), vehicle: saline) was 173 % of control and 177 % of control. The T/C (dose: 1.3 mg/kg/injection, schedule: Q01DX001 (ip), vehicle: saline) was 156 % of control, the T/C (dose: 1.5 mg/kg/injection, schedule: Q04DX002 (ip), vehicle: saline) was 161 % of control and the T/C (dose: 1.8 mg/kg/injection, schedule: Q04DX002 (ip), vehicle: saline) was 191 % of control and 200 % of control. For the same molecule, the T/C (dose: 1.8 mg/kg/injection, schedule: Q04DX003 (iv), vehicle: saline) was 167 % of control and 182 % of control, the T/C (dose: 2.0 mg/kg/injection, schedule: Q01DX001 (ip), vehicle: Klucel (hydroxypropylcellulose) (HPC)) was 155 % of control and 162 % of control and the T/C (dose: 2.0 mg/kg/injection, schedule: Q01DX001 (ip), vehicle: saline with Tween-80) was 157 % of control. For the same molecule, the T/C (dose: 2.0 mg/kg/injection, schedule: Q01DX001 (iv), vehicle: saline) was 154 % of control, the T/C (dose: 2.0 mg/kg/injection, schedule: Q04DX002 (ip), vehicle: saline) was 182 % of control and the T/C (dose: 2.0 mg/kg/injection, schedule: Q04DX003 (oral), vehicle: water) was 102 % of control. The T/C (dose: 2.7 mg/kg/injection, schedule: Q04DX003 (ip), vehicle: saline) was 179 % of control, the T/C (dose: 2.7 mg/kg/injection, schedule: Q04DX003 (iv), vehicle: saline) was 100 % of control and the T/C (dose: 3.0 mg/kg/injection, schedule: Q01DX001 (ip), vehicle: saline) was 170 % of control and 192 % of control. The T/C (dose: 3.0 mg/kg/injection, schedule: Q04DX002 (ip), vehicle: saline) was 99 % of control, the T/C (dose: 4.0 mg/kg/injection, schedule: Q01DX001 (ip), vehicle: Klucel (hydroxypropylcellulose) (HPC)) was 167 % of control and 174 % of control and the T/C (dose: 4.0 mg/kg/injection, schedule: Q01DX001 (ip), vehicle: saline with Tween-80) was 168 % of control. For the same molecule, the T/C (dose: 4.0 mg/kg/injection, schedule: Q01DX001 (iv), vehicle: saline) was 121 % of control, the T/C (dose: 4.0 mg/kg/injection, schedule: Q04DX003 (oral), vehicle: water) was 110 % of control and the T/C (dose: 4.5 mg/kg/injection, schedule: Q01DX001 (ip), vehicle: saline) was 104 % of control. For the same molecule, the T/C (dose: 8.0 mg/kg/injection, schedule: Q01DX001 (ip), vehicle: Klucel (hydroxypropylcellulose) (HPC)) was 194 % of control.
